This is an account of results in patent US20220030850A1, “CRYOPRESERVATIVE COMPOSITIONS AND METHODS” (REGENTS OF THE UNIVERSITY OF MINNESOTA, priority 2015, published 2022).

Data set [1] deals with Jurkat cells. Kind of data set: Raman microscopy cell penetration study of cryoprotectants. The note with it: for Penetration: Raman microscopy, at room temperature and at freezing temperatures; for location of cryoprotectant in Raman contrast image: Jurkat cells frozen in either glycerol or trehalose, FIG. 12. The class given is cell-based. The method, then: Raman microscopy data provides an indication of the location of action of each cryopreservative. The images in FIG. 12 show Jurkat cells frozen in either glycerol (penetrating) or trehalose (non-penetrating).
These experiments were performed for most of the components described in the sections above both at room temperature and at freezing temperatures to assess whether penetration was temperature dependent.
Confocal Raman Microspectroscopy (CRM) measurements are conducted using Witec Confocal Raman Microscope System Alpha 300R (WITec, Wissenschaftliche Instrumente und Technologie GmbH, Ulm, Germany) with UHTS300 spectrometer and DV401 CCD detector. A wavelength of 532 nm Nd:YAG laser and 10 mW of power is used as excitation source. The laser is transferred to the microscopy in a singer fiber. A 100× air objective (NA 0.90; Nikon Instruments, Melville, N.Y.) is used for focusing the 532 nm excitation laser to the sample. Data collection and analysis are performed by Windows-based WitecControl_1.38 software.

In data set [2] the target is lysozyme (Gallus gallus, UniProt P00698). The data set is described as follows: Differential scanning calorimetry, denaturation temperature of lysozyme in osmolyte solution. The conditions noted are these: 1 mg/ml lysozyme in 20 mM HEPES buffer; single osmolytes 600 mM; heated at 1° C./min; pH 7.3. The class given is physicochemical. The method, then: Lysozyme powder was dissolved into each solution reaching final concentration of 100 mg/ml and then refrigerated. Lysozyme in DPBS solution was used as control. For DSC measurements, experiment solution was made by dissolving osmolyte into 20 mM HEPES buffer and the concentration of osmolyte in each solution remained same as in DPBS solution. Lysozyme powder was dissolved into each solution reaching final concentration of 1 mg/ml and kept refrigerated. Lysozyme in HEPES buffer was used as control. The pH of solutions was 7.3 measured by Beckman 350 meter. Differential scanning calorimetry was performed on a differential scanning calorimeter (Q1000, TA Instruments, New Castle, Del.). Osmolyte solutions containing lysozyme were heated in order to determine the denaturation temperature of lysozyme. Experimental solutions were heated from room temperature to 90° C. at 1° C./min. Specific heat, Cp, was calculated from the heat flow data assuming Cp as a function of temperature were analyzed using OriginPro software (OriginLab Corp., Northampton, Mass.) to subtract curve baseline. The midpoint temperature, Tm, was obtained as the temperature corresponding to the maximum specific heat value from the baseline and the denaturation temperature was assumed to be Tm^32.
Chain of lysozyme (P00698 19-147): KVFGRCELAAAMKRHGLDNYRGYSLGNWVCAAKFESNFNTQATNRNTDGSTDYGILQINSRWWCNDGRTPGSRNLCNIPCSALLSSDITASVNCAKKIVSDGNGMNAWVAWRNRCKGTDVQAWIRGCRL
A general note: In DSC, transitions show as peaks or steps in heat flow.

In data set [3] the test system is MSCs. The data set is described as follows: High throughput factorial screening with Linear Mixed Effects statistical analysis of recovery. It counts as cell-based, human. The conditions noted are these: for correlation with recovery: statistical analysis. Here is the method:
(§1) In another evaluation, cells were combined with factorial combinations of the components listed in Table 5, using one component from each category. Plates including cells and solutions were frozen at cooling rates of 1′C/min, 3′C/min, 5′C/min, or 10′C/min.
(§2) Recovery was calculated by dividing the number of live cells post thaw—calculated using a control curve correlating calcein-acetoxymethyl (AM) fluorescence to cell count—by the number of live cells seeded pre-freeze (AO/PI counts taken prior to freezing). Recovery was normalized by dividing by the DMSO recovery on each plate, then multiplying by a standard DMSO recovery for each cooling rate. This normalized recovery was used to compare samples between different plates and different cooling rates.
(§3) Statistical analysis of the data was performed using a Linear Effects Model. The model associated with best fit was determined using Bayesian Information Criteria. […] The ten best combinations for Jurkats are summarized in Table 6 below, while the eight best combinations for MSCs are summarized in Table 7.
To assess the importance of the four explanatory variables of interest (Sugar, Rate, Additive and Alcohol), without neglecting the variation between each batch and between each plate within the batches, we sought to find the best Linear Mixed Effects (LME) model. With yi the i'th outcome of the response, Xi the corresponding values of the covariates, the LME model is defined as
To select the most fitting model, we performed backward elimination based on the Bayesian Information Criterion (BIC) starting with a model that includes all variables and second order interactions. Furthermore, we included two random variables, one to catch the effect of the batch, and one to catch the effect of each plate within the batch—i.e., the full model is: […]

The subject of data set [4] is Jurkat cells. Described as above. The note with it: for correlation with recovery: statistical analysis, data not shown. It counts as cell-based. The method, then: as §1, §2, §3
High throughput factorial screening experiments were performed on a Biomek Beckman FX 96 liquid handling robot. Briefly, 12.5 μl of an array of additives were transferred to nine 96-well plates containing 12.5 μl of different sugar alcohols. Cells (25 μl) diluted in either a sugar (in a solution of NORMOSOL-R; Hospira, Inc., Lake Forest, L) or a NORMOSOL-R blank solution were transferred to these nine plates to give a final volume of 50 μl in each well. Cells suspended in […] in media were also included as a row of each plate to serve as normalization wells for plate-to-plate comparison.
When all plate volume transfers were complete, silicone plate covers were used to seal each plate, and plates were transferred to a controlled rate freezer (Kryo 10 Series III, Planer PLC, Middlesex, United Kingdom) and frozen at cooling rates ranging from 1° C./min to 10° C./min. The concentrations of components present in solution are listed in Table 11, and were selected based on values described in literature or solubility limits. Component concentrations were 0 if not listed in a solution.
Plate samples were also assessed for viability using fluorescence. Briefly, a solution of calcein-AM/propidium iodide was prepared and a volume of 50 μl was added to each sample well of experimental 96-well plates, producing a 1:1 dilution. Plates were protected from light and placed in an incubator for 30 minutes to allow for calcein-AM digestion. A fluorescent plate reader (Synergy HT, BioTek Instruments, Inc., Winooski, Vt.) was used to determine the fluorescence in each well, which was correlated to live and dead cell counts using a control curve.
Viability was calculated for all samples by dividing the number of live cells by the number of total cells. Recovery was calculated directly by dividing the number of live cells post thaw by the number of live cells pre-freeze. Recovery for 96-well plate samples was further normalized; each experimental sample recovery was divided by the DMSO recovery on the same plate, and then multiplied by the standard DMSO recovery for the cooling rate of each experiment.
To assess the importance of the four explanatory variables of interest (Sugar, Rate, Additive and Alcohol), without neglecting the variation between each batch and between each plate within the batches, we sought to find the best Linear Mixed Effects (LME) model. […]

Data set [5] concerns Jurkat cells. Kind of data set: 96-well plate freezing, post-thaw scaled raw recovery (calcein-AM/PI). It counts as cell-based. The conditions noted are these: 150, 300, 600 mM total sugar; FIG. 8. The method, then:
The first phase of this study involved using the DE algorithm to develop a three-component cryopreservation solution used at a single cooling rate (1° C./min). Three components (trehalose, glycerol, and ectoine (TGE)) were selected as components of the exemplary freezing medium used for preservation of Jurkat cells, a hematopoietic model cell type, based on pre-screening of multiple non-DMSO components. For this single cooling rate study, the DE algorithm was programmed to output 18 vector solutions per generation with a weight=0.85 and a crossover=1. Jurkat cells cryopreserved in 10% DMSO at a cooling rate of 1° C./min were used as a control.
Cooling rate influences cell survival, and the preferred cooling rate for a given application can depend, at least in part, on the composition of the freezing medium and the cell type being frozen. […] To assess both cooling rate and the composition of the solution, the DE algorithm was programmed to output 27 vector solutions per generation with weight=0.85 and a crossover=1. Solutions were separated into categories based on their DE algorithm defined cooling rate, and were frozen in batches at a cooling rate of […], 0.5° C./min, 1° C./min, 3° C./min, 5° C./min, or 10° C./min. Results were normalized and scaled raw recovery is reported, allowing results from all cooling rates and all generations to be compared directly. […]
After 96 well plates were thawed, calcein-acetoxymethyl (AM)/propidium iodide was added to each well and the wells were covered from light and placed in a 37° C. incubator for 30 minutes to allow the live cells to cleave calcein-AM. The plates were then analyzed for fluorescence on a plate reader. Raw fluorescence values were used to calculate the number of live and dead cells present in each well by correlating to a control curve of unfrozen cells. The live cell recovery was calculated by dividing the number of live cells present in thawed samples (calcein-AM plate reader fluorescence) by the number of live cells seeded pre-freeze (AO/PI counts). […]

Setting [6] is: statistical analysis of sugar and cooling rate.

With `C[C@H](N)C(=O)O` [Alanine], the Penetration result in data set [1] is on record as “Yes”.
On to `CC1=NCC[C@@H](C(=O)O)N1` [Ectoine], for which, in data set [1], the Penetration result is reported as “Yes”. Besides, the “Denaturation temperature Tm of lysozyme” value in data set [2] stood at 79.6 °C.
Consider `OCCO` [Ethylene glycol], for which, in data set [1], the Penetration result was “Yes”.
Turning to `O=C(CO)[C@@H](O)[C@H](O)[C@H](O)CO` [Fructose], the Penetration entry in data set [1] is listed as “Yes”.
Take `OCC(O)CO` [Glycerol]: in data set [1], the “location of cryoprotectant in Raman contrast image” value was “present both inside the cell and in the super cooled liquid surrounding the cell”; the Penetration result is “Yes”. Besides, the correlation with recovery entry in data set [3] is on record as “positively correlated”.
Consider `O[C@H]1[C@H](O)[C@@H](O)[C@H](O)[C@@H](O)[C@H]1O` [Inositol], for which the Penetration entry in data set [1] is “Yes”.
On the same count and under the same terms, the result for `OC[C@@H](O)[C@@H](O)[C@H](O)[C@H](O)CO` [Mannitol] reads “Yes”.
On to `O=C(O)[C@@H]1CCCN1` [Proline], for which the Penetration result in data set [1] is “Yes”. The correlation with recovery result in data set [4] and in data set [3] was “negatively correlated” each time.
Consider `OC[C@@H](O)[C@@H](O)[C@H](O)[C@@H](O)CO` [Sorbitol], for which the Penetration result in data set [1] is recorded as “Yes”. Besides, in data set [2], the “Denaturation temperature Tm of lysozyme” value came out at 83.1 °C. Also, the correlation with recovery entry in data set [3] is reported as “positively correlated”.
Take `NCCS(=O)(=O)O` [Taurine]: in data set [1], the Penetration result was “Yes”.
With `OC[C@H]1O[C@H](O[C@H]2O[C@H](CO)[C@@H](O)[C@H](O)[C@H]2O)[C@H](O)[C@@H](O)[C@@H]1O` [Trehalose], in data set [5], the “recovery of Jurkat cells, sugar synergy study” value is on record as “outperformed monosaccharides”. In data set [1], the “location of cryoprotectant in Raman contrast image” value is “excluded from the cell” and the Penetration result is given as “Semi*”. In addition, the “cooling rate at which cells performed better with the sugar” value in data set [4] (setting [6]) is given as 5° C./min. In data set [3] (setting [6]), the “cooling rate at which cells performed better with the sugar” value was found to be 10° C./min.
As for `CC(C)[C@H](N)C(=O)O` [Valine], in data set [1], the Penetration entry is reported as “Yes”. The correlation with recovery result in data set [3] is “negatively correlated”.
As for `OC[C@@H](O)[C@H](O)[C@@H](O)CO` [Xylitol], the Penetration entry in data set [1] is “Yes”.
`OC[C@@H](O)[C@@H](O)CO` [erythritol]: the correlation with recovery result in data set [4] and in data set [3] was “negatively correlated” in each case.
On to `OC[C@@H](O)[C@@H](O)[C@@H](O)CO` [ribitol], for which the correlation with recovery result in data set [4] and in data set [3] was “negatively correlated” in each case.
